Laboratory results: ChEMBL document CHEMBL3091361, “Synthesis, structure elucidation and in vitro anticancer activities of novel derivatives of diethyl (2E)-2-[(2E)-(1-arylimidazolidin-2-ylidene)hydrazono]succinate and ethyl (4-oxo-8-aryl-4,6,7,8-tetrahydroimidazo[2,1-c][1,2,4]triazin-3-yl)acetate” (Bioorg Med Chem, 2013)

How the values were obtained:
[1] = tested on: HeLa; assay: Induction of necrosis in human HeLa cells at 50 ug/ml after 72 hrs by propidium iodide/Hoechst 33342 staining-based confocal microscopy (reference value: 10%); type: functional
[2] = tested on: HeLa; assay: Induction of apoptosis in human HeLa cells at 50 ug/ml after 24 hrs by propidium iodide/Hoechst 33342 staining-based confocal microscopy (reference value: 2%); type: functional
[3] = tested on: T47D; assay: Induction of apoptosis in human T47D cells at 50 ug/ml after 72 hrs by propidium iodide/Hoechst 33342 staining-based confocal microscopy (reference value: 5%); type: functional
[4] = tested on: HeLa; assay: Cytotoxicity against human HeLa cells at 50 ug/ml after 24 hrs by BrdU incorporation assay relative to control; type: functional; conditions: read-out: GI
[5] = tested on: T47D; assay: Induction of necrosis in human T47D cells at 50 ug/ml after 72 hrs by propidium iodide/Hoechst 33342 staining-based confocal microscopy (reference value: 10%); type: functional
[6] = tested on: HeLa; assay: Cytotoxicity against human HeLa cells at 50 ug/ml after 48 hrs by BrdU incorporation assay relative to control; type: functional; conditions: read-out: GI
[7] = tested on: HeLa; assay: Induction of apoptosis in human HeLa cells at 50 ug/ml after 72 hrs by propidium iodide/Hoechst 33342 staining-based confocal microscopy (reference value: 5%); type: functional
[8] = Cytotoxicity against human MM1R cells at 50 ug/ml after 24 hrs by BrdU incorporation assay relative to control; type: functional; conditions: MM.1R, read-out: GI
[9] = tested on: HeLa; assay: Induction of necrosis in human HeLa cells at 50 ug/ml after 48 hrs by propidium iodide/Hoechst 33342 staining-based confocal microscopy (reference value: 10%); type: functional
[10] = Induction of necrosis in human HSF cells at 50 ug/ml after 24 hrs by propidium iodide/Hoechst 33342 staining-based confocal microscopy (reference value: 2%); type: cell-based
[11] = Induction of apoptosis in human HSF cells at 50 ug/ml after 24 hrs by propidium iodide/Hoechst 33342 staining-based confocal microscopy (reference value: 2%); type: cell-based
[12] = Cytotoxicity against human MM1R cells at 50 ug/ml after 72 hrs by BrdU incorporation assay relative to control; type: functional; conditions: MM.1R, read-out: GI
[13] = tested on: HeLa; assay: Cytotoxicity against human HeLa cells at 50 ug/ml after 72 hrs by BrdU incorporation assay relative to control; type: functional; conditions: read-out: GI
[14] = Induction of necrosis in human HSF cells at 50 ug/ml after 72 hrs by propidium iodide/Hoechst 33342 staining-based confocal microscopy (reference value: 5%); type: cell-based
[15] = Cytotoxicity against human MM1S cells at 50 ug/ml after 48 hrs by BrdU incorporation assay relative to control; type: functional; conditions: MM1.S, read-out: GI
[16] = tested on: HeLa; assay: Induction of necrosis in human HeLa cells at 50 ug/ml after 24 hrs by propidium iodide/Hoechst 33342 staining-based confocal microscopy (reference value: 5%); type: functional
[17] = Cytotoxicity against human MM1R cells at 50 ug/ml after 48 hrs by BrdU incorporation assay relative to control; type: functional; conditions: MM.1R, read-out: GI
[18] = Induction of apoptosis in human HSF cells at 50 ug/ml after 48 hrs by propidium iodide/Hoechst 33342 staining-based confocal microscopy (reference value: 5%); type: cell-based
[19] = Induction of apoptosis in human HSF cells at 50 ug/ml after 72 hrs by propidium iodide/Hoechst 33342 staining-based confocal microscopy (reference value: 5%); type: cell-based
[20] = tested on: T47D; assay: Induction of necrosis in human T47D cells at 50 ug/ml after 48 hrs by propidium iodide/Hoechst 33342 staining-based confocal microscopy (reference value: 8%); type: functional
[21] = tested on: T47D; assay: Induction of apoptosis in human T47D cells at 50 ug/ml after 24 hrs by propidium iodide/Hoechst 33342 staining-based confocal microscopy (reference value: 2%); type: functional
[22] = Induction of necrosis in human HSF cells at 50 ug/ml after 48 hrs by propidium iodide/Hoechst 33342 staining-based confocal microscopy (reference value: 4%); type: cell-based
[23] = tested on: T47D; assay: Cytotoxicity against human T47D cells at 50 ug/ml after 48 hrs by BrdU incorporation assay relative to control; type: functional; conditions: read-out: GI
[24] = tested on: HeLa; assay: Induction of apoptosis in human HeLa cells at 50 ug/ml after 48 hrs by propidium iodide/Hoechst 33342 staining-based confocal microscopy (reference value: 5%); type: functional
[25] = tested on: T47D; assay: Cytotoxicity against human T47D cells at 50 ug/ml after 72 hrs by BrdU incorporation assay relative to control; type: functional; conditions: read-out: GI
[26] = Cytotoxicity against human MM1S cells at 50 ug/ml after 72 hrs by BrdU incorporation assay relative to control; type: functional; conditions: MM1.S, read-out: GI
[27] = Cytotoxicity against human HSF cells at 50 ug/ml after 48 hrs by BrdU incorporation assay relative to control; type: cell-based; conditions: read-out: GI
[28] = Cytotoxicity against human HSF cells at 50 ug/ml after 24 hrs by BrdU incorporation assay relative to control; type: cell-based; conditions: read-out: GI
[29] = tested on: T47D; assay: Induction of apoptosis in human T47D cells at 50 ug/ml after 48 hrs by propidium iodide/Hoechst 33342 staining-based confocal microscopy (reference value: 2%); type: functional
[30] = tested on: T47D; assay: Induction of necrosis in human T47D cells at 50 ug/ml after 24 hrs by propidium iodide/Hoechst 33342 staining-based confocal microscopy (reference value: 5%); type: functional
[31] = tested on: T47D; assay: Cytotoxicity against human T47D cells at 50 ug/ml after 24 hrs by BrdU incorporation assay relative to control; type: functional; conditions: read-out: GI
[32] = Cytotoxicity against human MM1S cells at 50 ug/ml after 24 hrs by BrdU incorporation assay relative to control; type: functional; conditions: MM1.S, read-out: GI
[33] = Cytotoxicity against human HSF cells at 50 ug/ml after 72 hrs by BrdU incorporation assay relative to control; type: cell-based; conditions: read-out: GI

SMILES | inhibition of growth at 50 µg/mL [4] | inhibition of growth at 50 µg/mL [6] | inhibition of growth at 50 µg/mL [8] | inhibition of growth at 50 µg/mL [12] | inhibition of growth at 50 µg/mL [13] | inhibition of growth at 50 µg/mL [15] | inhibition of growth at 50 µg/mL [17] | inhibition of growth at 50 µg/mL [23] | inhibition of growth at 50 µg/mL [25] | inhibition of growth at 50 µg/mL [26] | inhibition at 48 h, 50 ug/ml [27] | inhibition at 24 h, 50 ug/ml [28] | inhibition of growth at 50 µg/mL [31] | inhibition of growth at 50 µg/mL [32] | inhibition at 72 h, 50 ug/ml [33] | also measured
CCOC(=O)Cc1nnc2n(c1=O)CCN2c1ccccc1 | 20% | 75% | 80% | 90% | 75% | 30% | 85% | 80% | 85% | 80% | 50% | 25% | 40% | 25% | 50% | Activity [1]: 80%; Activity [2]: 10%; Activity [3]: 10%; Activity [5]: 85%; Activity [7]: 15%; Activity [9]: 75%; Activity [10]: 25%; Activity [11]: 5%; Activity [14]: 50%; Activity [16]: 20%; Activity [18]: 5%; Activity [19]: 8%; Activity [20]: 80%; Activity [21]: 5%; Activity [22]: 50%; Activity [24]: 15%; Activity [29]: 10%; Activity [30]: 40%
CCOC(=O)Cc1nnc2n(c1=O)CCN2c1ccccc1OC | 10% | 45% | 75% | 95% | 50% | 55% | 80% | 35% | 40% | 85% | 80% | 50% | 30% | 45% | 80% | –
CCOC(=O)C/C(=N\N=C1/NCCN1c1cccc(Cl)c1)C(=O)OCC | 5% | 25% | 70% | 80% | 45% | 65% | 75% | 85% | 90% | 80% | 90% | 70% | 80% | 40% | 90% | –
CCOC(=O)C/C(=N\N=C1/NCCN1c1ccc(C)cc1)C(=O)OCC | 5% | 45% | 75% | 95% | 50% | 70% | 90% | 75% | 80% | 85% | 80% | 70% | 50% | 55% | 80% | –
CCOC(=O)C/C(=N\N=C1/NCCN1c1ccc(Cl)c(Cl)c1)C(=O)OCC | 50% | 50% | 70% | 80% | 60% | 80% | 80% | 95% | 100% | 90% | 90% | 70% | 80% | 70% | 90% | –
CCOC(=O)C/C(=N\N=C1/NCCN1c1ccc(Cl)cc1)C(=O)OCC | 10% | 30% | 65% | 90% | 55% | 75% | 80% | 85% | 90% | 90% | 90% | 70% | 80% | 65% | 90% | –
CCOC(=O)Cc1nnc2n(c1=O)CCN2c1ccc(C)cc1 | 20% | 70% | 60% | 75% | 70% | 60% | 70% | 75% | 80% | 70% | 75% | 50% | 25% | 50% | 80% | –
